What was measured:
[1] = system: S. cerevisiae strain RS112; assay: well-based DEL assay (MTS colorimetric, 96/384-well): genotoxicity and cytotoxicity
Description: The RS112 yeast DEL assay tester strain of Saccharomyces cerevisiae contains a plasmid with an internal fragment of the HIS3 gene integrated at the genomic HIS3 locus, yielding an integrative disruption of the HIS3 gene. This disruption results in two copies of the HIS3 gene, each copy having one terminal deletion. Recombination between the two his3 deletion alleles results in reversion to HIS3^+ and growth in the absence of histidine. This recombination event leads to a 6 kb DNA deletion comprising the integrated plasmid leading to deletion (DEL) events. The assay utilizing DEL events involves overnight growth of a single colony of the RS112 strain and subsequent subculture with the presence or absence of the chemical being tested for 17 hours at 30° C. under constant shaking. Yeast are then plated onto SC medium to determine the number of survivors (individual colonies are counted) and onto SC-HIS medium to score for DEL events. The traditional DEL assay is very powerful if one is testing a limited number of chemicals but becomes impractical for screening large numbers of chemicals and chemical libraries.
For 384-well plate format, 1 μl of yeast (˜100,000 cells) was pipetted into 8 microplate wells for each compound, four of which containing 70 μl SC media and four containing 70 μl SC-HIS media; each well was supplemented with 14 μl of MTS and 5 μl of compound. For 96-well plate format, the above was consistent except media, MTS, and compound volumes were 100 μl, 20 μl, and 7 μl, respectively. Control wells were treated with water in lieu of compound. The outermost columns of the 96-well plate and outer two columns of each 384-well plate were excluded from experimentation lest edge evaporative effects alter the data. Plates were incubated at 30° C. at normal atmosphere during which yeast were grown in the presence of the tested compound and 490 nm absorbance was measured 10-18 hr later using a Molecular Devices SpectraMax M5 microplate reader (Sunnyvale, Calif.).
Survival for a given compound treatment was quantified by averaging the absorbance across the four treated wells in SC media and dividing that by the average absorbance of control wells. DEL induction was quantified by dividing the absorbance of each SC-HIS well by the corresponding paired SC well. Thus for each compound done in quadruplicate, each plate contains a set of 4 different measurements of DEL induction. For each compound, ratio of the average DEL induction in treated versus control cultures was taken as the fold-increase in DEL events (HIS^+ growth). A Student's t-test was performed on the 4 measurements of DEL induction and the same measurements recorded from control wells to determine significance of the fold-increase. It should be noted that this value of fold-increase is analyzed statistically for significance and not absolute; thus two different chemicals may have the same fold-increase but varying levels of significance. In plots and tables, data from a single experiment performed in quadruplicate is presented; all experiments were repeated independently in at least 3 separate experiments in both 96 and 384-well plate formats.

[2] = system: Saccharomyces cerevisiae; conditions: cited from earlier work; for induction of DNA deletions: previous experiments
[3] = system: Saccharomyces cerevisiae; conditions: Angeli's salt as HNO donor; cited from earlier work
[4] = system: Saccharomyces cerevisiae; assay: traditional plate-based yeast DEL assay (DNA deletions); format: cell-based; conditions: 1.4 mM; background about 20 DEL events per 100,000 cells
Procedure: In one embodiment, yeast cells (Saccharomyces cerevisiae) having a disruption of the his gene as the DEL selection marker are treated with test agents in 25 ml tubes and then plated for about 48 h at 30° C. Following treatment the cells are washed, for example, with PBS, and sonicated to assure dissociation of the cells into a single-cell suspension. The cells are then plated at an appropriate dilution (see below) onto medium lacking histidine as well as standard medium containing histidine. The histidine-lacking medium is used to determine recombination frequency. Standard medium (medium containing histidine) is used to determine the overall toxicity of the test agent.

SMILES: [K+].[K+].[O]=[Cr](=[O])([O-])[O][Cr](=[O])(=[O])[O-] [Cr (6), K2Cr2O7]
- Cytotoxicity (% survival) ([1]; 0.2 mM final in well): 32.1%
- Cytotoxicity significance ([1]; 0.2 mM final in well): *** (*** (p < 0.005))
- DEL (fold increase) ([1]; 0.2 mM final in well): 2.13 fold
- DEL significance ([1]; 0.2 mM final in well): *** (*** (p < 0.005))
- Cytotoxicity (% survival) ([1]; 0.7 mM final in well): 9.91%
- Cytotoxicity significance ([1]; 0.7 mM final in well): *** (*** (p < 0.005))
- DEL (fold increase) ([1]; 0.7 mM final in well): 3.78 fold
- DEL significance ([1]; 0.7 mM final in well): *** (*** (p < 0.005))
- Cytotoxicity (% survival) ([1]; 1.4 mM final in well): 10.8%
- Cytotoxicity significance ([1]; 1.4 mM final in well): *** (*** (p < 0.005))
- DEL (fold increase) ([1]; 1.4 mM final in well): 3.12 fold
- DEL significance ([1]; 1.4 mM final in well): *** (*** (p < 0.005))
- induction of the DEL assay ([1]; between 0.2 and 1.4 mM (~20-140 μg/ml)): very potent induction of the DEL assay
- survival ([1]; with increased dose between 0.2 and 1.4 mM (~20-140 μg/ml)): severely decreased survival
- induction of DNA deletions [2]: induced DNA deletions

SMILES: N=O [HNO]
- induction of DNA deletions and recombination ([2]; Angeli's salt as HNO donor): potent inducer of DNA deletions and recombination
- genotoxicity ([2]; under aerobic and anaerobic conditions): observed
- induction of point mutations [3]: negative

SMILES: [Cl][Cr]([Cl])[Cl] [Cr (3), CrCl3]
- Cytotoxicity (% survival) ([1]; 0.2 mM final in well): 110.1%
- DEL (fold increase) ([1]; 0.2 mM final in well): 0.93 fold
- DEL significance ([1]; 0.2 mM final in well): ns (ns—not significant (p > 0.05))
- Cytotoxicity (% survival) ([1]; 0.7 mM final in well): 85.8%
- Cytotoxicity significance ([1]; 0.7 mM final in well): ** (** (p < 0.01))
- DEL (fold increase) ([1]; 0.7 mM final in well): 0.98 fold
- DEL significance ([1]; 0.7 mM final in well): ns (ns—not significant (p > 0.05))
- DEL recombination ([1]; 1.4 mM (~222 μg/ml)): significant increase in DEL recombination
- Cytotoxicity (% survival) ([1]; 1.4 mM final in well): 36.8%
- Cytotoxicity significance ([1]; 1.4 mM final in well): *** (*** (p < 0.005))
- DEL (fold increase) ([1]; 1.4 mM final in well): 1.44 fold
- DEL significance ([1]; 1.4 mM final in well): *** (*** (p < 0.005))
- genotoxic events ([1]; 0.2 (~32 μg/ml) or 0.7 mM (~111 μg/ml)): did not induce any genotoxic events
- lowest detectable concentration (significant genotoxicity) ([1]; well-based format): 1.4 mM
- increase above background [4]: approximately 13.6 cells
- DEL events per 100,000 cells ([2]; 1.4 mM (~222 μg/ml), plate-based assay, previously observed): 33.6 DEL events per 100,000 cells
- induction of DNA deletions [2]: induced DNA deletions
- lowest dose which induced significant genotoxicity ([2]; traditional agar plate version): 0.7 mM

Source: patent US9193983B2, “Assays for mutagenesis detection” (The Regents of the University of California, priority 2007, dated 2015)
